“Also recorded” adds a separate entry of the source.
How the values were obtained:
TrkB [1] = biological target: T1, TrkB (Rattus norvegicus, UniProt Q63604); assay: TrkB phosphorylation, western blot, primary rat cortical neuronal culture; assay type: cell-based; parameters: key: “+”=increased phosphorylation; “−”=decreased phosphorylation; “nc”=no change
T1 construct: in primary cultures of rat cortical neurons; endogenous in cells; host or cells: primary rat cortical neurons
Method: (§1) Different concentrations of 2-fluoro-N-(2-(5-hydroxy-1H-indol-3-yl)ethyl)nicotinamide (analogue 147) were tested in NIH-3T3-TrkB cells. Cells at 70-80% confluency were serum deprived overnight and then stimulated with different concentrations of analogue 147 for 30 minutes. Protein extract was collected and subjected for western blot analysis. […] “+”=increased phosphorylation; “−”=decreased phosphorylation; “nc”=no change.
(§2) To screen the analogs for biological activity, the phosphorylation state of TrkB and AKT, a downstream signaling mediator of TrkB activation, was examined in cultured NIH/3T3 cells expressing human TrkB and in primary cultures of rat cortical neurons (see FIG. 5).

AKT [2] = assay: AKT phosphorylation, western blot, NIH 3T3 cells expressing human TrkB; assay type: cell-based; parameters: key: “+”=increased phosphorylation; “−”=decreased phosphorylation; “nc”=no change; conditions: NIH 3T3 - TrkB cells
Method: as §1, §2

TrkB [3] = biological target: T2, TrkB (Homo sapiens, UniProt Q16620); assay: TrkB phosphorylation, western blot, NIH 3T3 cells expressing human TrkB; assay type: cell-based; parameters: expressed in transfected cells; host or cells: NIH/3T3 (NIH-3T3-TrkB) cells; key to pTrkB/β-actin: “+”=increased phosphorylation; “−”=decreased phosphorylation; “nc”=no change; conditions: for pTrkB/β-actin: NIH 3T3 - TrkB cells, western blot; for concentration of best TrkB activation / TrkB activation, concentration dependence: NIH-3T3-TrkB cells, stimulated 30 minutes; for concentration of best TrkB activation: serum deprived overnight
Method: as §1, §2
Target sequence in this assay (Q16620 32-822): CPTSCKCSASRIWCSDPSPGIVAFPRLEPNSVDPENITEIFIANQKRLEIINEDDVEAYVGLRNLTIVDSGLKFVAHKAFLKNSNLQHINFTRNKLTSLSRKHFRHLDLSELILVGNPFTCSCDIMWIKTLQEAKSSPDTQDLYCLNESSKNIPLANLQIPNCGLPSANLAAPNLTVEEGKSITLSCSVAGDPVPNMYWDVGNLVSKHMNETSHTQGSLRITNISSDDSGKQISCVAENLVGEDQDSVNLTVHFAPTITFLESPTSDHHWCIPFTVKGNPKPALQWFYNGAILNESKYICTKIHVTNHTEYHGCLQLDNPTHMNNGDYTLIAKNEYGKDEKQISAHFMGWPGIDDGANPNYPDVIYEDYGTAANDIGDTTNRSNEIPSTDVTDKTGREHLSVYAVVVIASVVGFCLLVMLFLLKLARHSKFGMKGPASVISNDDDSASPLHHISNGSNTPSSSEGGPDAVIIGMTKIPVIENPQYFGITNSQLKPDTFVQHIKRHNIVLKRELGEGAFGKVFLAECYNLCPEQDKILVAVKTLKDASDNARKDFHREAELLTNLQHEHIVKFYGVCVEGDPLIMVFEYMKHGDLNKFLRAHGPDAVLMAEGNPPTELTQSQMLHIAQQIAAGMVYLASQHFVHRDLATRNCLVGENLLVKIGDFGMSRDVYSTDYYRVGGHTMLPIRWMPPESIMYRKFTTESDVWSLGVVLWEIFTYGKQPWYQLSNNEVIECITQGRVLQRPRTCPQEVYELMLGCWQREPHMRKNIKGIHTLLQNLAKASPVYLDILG

AKT [4] = assay: AKT phosphorylation, western blot, primary rat cortical neuronal culture; assay type: cell-based; parameters: key: “+”=increased phosphorylation; “−”=decreased phosphorylation; “nc”=no change
Method: as §1, §2

TrkB [5] = biological target: T2, TrkB; conditions: cited from earlier work
Target sequence in this assay (Q16620 32-822, species assumed): as the sequence (Q16620 32-822) above

photoreceptor damage = conditions: cited from earlier work
[6] = system: blast-induced loss of visual function; assay: Mouse blast injury (TBI) model, loss of visual function; assay type: in vivo
Method: Mice were exposed to a single 70 psi blast directed at the right side of the head. HIOC or vehicle was administered 15 minutes after exposure to blast, and daily for the next six days. A sham control group was included for comparison. Visual function was tested 1 week after blast.
(§3) This disclosure contemplates pharmaceutical treatments for trauma-induced vision loss that can be administered on the battlefield or in field hospitals during the critical period before irreversible neuronal degeneration and vision loss occur. A mouse blast injury model has been used to characterize the effects of blast injury to the eye and visual system. Blast injury results in (1) inflammatory responses (microglial activation and reactive gliosis) and activation of the innate and acquired immune system; (2) loss of visual function (contrast sensitivity and visual acuity); (3) thinning of the nerve fiber layer of the retina, and (4) axon loss in the optic nerve. An N-acetylserotonin derivative, N-[2-(5-hydroxy-1H-indol-3-yl)ethyl]-2-oxopiperidine-3-carboxamide (HIOC), effectively mitigates vision loss when administered within several hours after blast exposure (FIG. 1). Daily administration for one week reduces or prevents blast-induced loss of visual function for at least 4 months, mitigating the progressive vision loss that occurs over time in the absence of treatment. This therapeutic effect of HIOC is mediated by activation of TrkB, the cognate receptor for Brain-Derived Neurotrophic Factor (BDNF). Both N-acetylserotonin and HIOC activate TrkB and have neuroprotective properties. The pharmacokinetic characteristics of HIOC are desirable for an in vivo treatment because TrkB is activated for up to 16 hours following a single injection.
The ability of HIOC to mitigate the loss of visual function resulting from blast directed at the head was examined (FIG. 1). Mice were exposed to a single blast of ˜70 psi directed on the right side of the head. Contrast sensitivity was measured 1 week after blast.

[7] = system: brain damage from subarachnoid hemorrhage; conditions: cited from earlier work
[8] = system: kainic acid-induced neuronal cell death; conditions: TrkB-dependent; cited from earlier work
TrkB [9] = biological target: T3, TrkB (Mus musculus, UniProt P15209); assay: TrkB activation in retina and brain after systemic administration; assay type: in vivo
T3 construct: from tissue; host or cells: retina (ganglion cells) and brain
T3 sequence (P15209 32-821): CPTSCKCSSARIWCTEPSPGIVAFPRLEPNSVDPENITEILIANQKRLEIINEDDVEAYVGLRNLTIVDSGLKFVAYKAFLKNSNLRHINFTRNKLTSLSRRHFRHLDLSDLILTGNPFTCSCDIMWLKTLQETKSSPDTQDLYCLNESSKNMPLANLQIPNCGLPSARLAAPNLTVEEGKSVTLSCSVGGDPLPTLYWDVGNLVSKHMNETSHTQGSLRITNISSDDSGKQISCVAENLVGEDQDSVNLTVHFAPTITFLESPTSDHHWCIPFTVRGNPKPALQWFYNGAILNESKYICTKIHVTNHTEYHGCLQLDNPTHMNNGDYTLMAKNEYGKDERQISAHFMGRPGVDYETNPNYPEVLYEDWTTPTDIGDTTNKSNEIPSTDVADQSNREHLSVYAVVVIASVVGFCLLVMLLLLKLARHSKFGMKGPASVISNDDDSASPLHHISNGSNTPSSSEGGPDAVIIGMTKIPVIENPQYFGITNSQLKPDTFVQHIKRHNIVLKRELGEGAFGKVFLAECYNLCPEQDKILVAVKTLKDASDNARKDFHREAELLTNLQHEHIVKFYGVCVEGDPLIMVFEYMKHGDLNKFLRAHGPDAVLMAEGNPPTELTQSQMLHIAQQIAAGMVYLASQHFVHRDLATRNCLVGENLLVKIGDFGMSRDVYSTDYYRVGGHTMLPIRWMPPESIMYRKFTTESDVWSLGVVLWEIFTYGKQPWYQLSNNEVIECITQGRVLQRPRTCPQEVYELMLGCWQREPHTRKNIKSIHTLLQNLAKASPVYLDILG
From the text: as §3, with “The pharmacokinetic characteristics of HIOC are desirable for an in vivo treatment because TrkB is activated for up to 16 hours following a single injection.” left out

T1 sequence (Q63604 32-821): as the sequence (P15209 32-821) above, with T3M, S9T, A10T, V32I, R63K, S84G, M153T, L185I, S394T, S770N counted along it

pTrkB/β-actin (TrkB [1]) | pTrkB/β-actin (TrkB [3]) | Molecule | pAkt/β-actin (AKT [2]) | pAkt/β-actin (AKT [4]) | also measured
+ | + | O=C1NCCCC1C(=O)NCCc1c[nH]c2ccccc12 (stereo not shown) [Analogue 145, N-(2-(1H-indol-3-yl)ethyl)-2-oxopiperidine-3-carboxamide] | + | + | 
+ | + | CC1(C(=O)NCCc2c[nH]c3ccc(O)cc23)CCCNC1=O (stereo not shown) [Analogue 170, N-(2-(5-hydroxy-1H-indol-3-yl)ethyl)-3-methyl-2-oxopiperidine-3-carboxamide] | + | nc | 
+ | + | O=C(NCCc1c[nH]c2ccc(O)cc12)c1ccncc1 [Analogue 107, N-(2-(5-hydroxy-1H-indol-3-yl)ethyl)isonicotinamide] | + | + | 
+ | + | O=C(NCCc1c[nH]c2ccc(O)cc12)c1ccccc1 [Analogue 83, N-(2-(5-hydroxy-1H-indol-32-yl)ethyl)benzamide] | + | + | 
 |  | CC(=O)NCCc1c[nH]c2ccc(O)cc12 [N-acetylserotonin] |  |  | TrkB activation (TrkB [5]): activate TrkB
+ |  | CN1CCCC(C(=O)NCCc2c[nH]c3ccc(O)cc23)C1=O (stereo not shown) [Analogue 151, N-(2-(5-hydroxy-1H-indol-3-yl)ethyl)-1-methyl-2-oxopiperidine-3-carboxamide] |  | − | 
+ | + | O=C(NCCc1c[nH]c2ccc(O)cc12)c1cccnc1F [Analogue 147, 2-fluoro-N-(2-(5-hydroxy-1H-indol-3yl)ethyl)nicotinamide] | + | + | concentration of best TrkB activation (TrkB [3]): 10 nM; TrkB activation, concentration dependence (TrkB [3]): higher activity at low nanomolar concentrations than at 1 μM
+ | nc | O=C(NCCc1c[nH]c2ccc(O)cc12)c1cccnc1 [Analogue 85, N-(2-(5-hydroxy-1H-indol-3-yl)ethyl)nicotinamide] | nc | + | 
+ | − | O=C(NCCc1c[nH]c2ccc(O)cc12)c1ccccn1 [Analogue 105, N-(2-(5-hydroxy-1H-indol-3yl)ethyl)picolinamide] | + | + | 
nc |  | O=C(NCCc1c[nH]c2ccc(O)cc12)c1ccncc1F [Analogue 114, 3-fluoro-N-(2-(5-hydroxy-1H-indol-3-yl)ethyl)isonicotinamide] |  | nc | 
+ |  | O=C(NCCc1c[nH]c2ccc(O)cc12)c1ccc(F)cn1 [Analogue 112, 5-fluoro-N-(2-(5-hydroxy-1H-indol-3yl)ethyl)picolinamide] |  | − | 
+ | − | COc1ccc2[nH]cc(CCNC(=O)C3CCCNC3=O)c2c1 (stereo not shown) [Analogue 149, N-(2-(5-methoxy-1H-indol-3-yl)ethyl)-2-oxopiperidine-3-carboxamide] | + | + | 
+ | + | O=C(NCCc1c[nH]c2ccc(O)cc12)c1cncc(F)c1 [Analogue 127, 5-Fluoro-N-(2-(5-hydroxy-1H-indol-3-yl)ethyl)nicotinamide] | − | + | concentration of best TrkB activation (TrkB [3]): 100 nM; TrkB activation, concentration dependence (TrkB [3]): higher activity at low nanomolar concentrations than at 1 μM
+ | + | BDNF: Brain-Derived Neurotrophic Factor; TrkB is its cognate receptor (protein, UniProt P23560 19-247, looked up) Neurotrophic factor BDNF …: APMKEANIRGQGGLAYPGVRTHGTLESVNGPKAGSRGLTSLADTFEHVIEELLDEDQKVRPNEENNKDADLYTSRVMLSSQVPLEPPLLFLLEEYKNYLDAANMSMRVRRHSDPARRGELSVCDSISEWVTAADKKTAVDMSGGTVTVLEKVPVSKGQLKQYFYETKCNPMGYTKEGCRGIDKRHWNSQCRTTQSYVRALTMDSKKRIGWRFIRIDTSCVCTLTIKRGR | + | + | 

Molecule | pTrkB/β-actin (TrkB [1]) | pTrkB/β-actin (TrkB [3]) | pAkt/β-actin (AKT [2]) | pAkt/β-actin (AKT [4]) | also measured
O=C1NCCCC1C(=O)NCCc1c[nH]c2ccc(O)cc12 (stereo not shown) [HIOC, N-[2-(5-hydroxy-1H-indol-3-yl)ethyl]-2-oxopiperidine-3-carboxamide] | + | + | + | + | photoreceptor damage from toxic light exposure (photoreceptor damage): reduces photoreceptor damage; effects on blast-induced retinal and optic nerve damage ([6]; blast exposure): reduces vision loss, microglial activation in the retina, nerve fiber layer thinning, and the optic nerve axon loss; duration of protection from blast-induced loss of visual function ([6]; daily administration for one week): at least 4 months; TBI induced decrease in contrast sensitivity ([6]; mice, single ~70 psi blast, 80 mg/kg, measured 1 week after blast): completely prevented; brain damage from subarachnoid hemorrhage [7]: attenuates brain damage; kainic acid-induced neuronal cell death / apoptosis [8]: inhibits neuronal apoptosis; also recorded: reduces kainic acid-induced neuronal cell death; duration of TrkB activation (TrkB [9]; following a single injection): up to 16 hours; blood-retinal and blood-brain barrier penetration (TrkB [9]; systemic administration): crosses the blood-retinal and blood-brain barriers; TrkB activation (TrkB [5]): activate TrkB; also recorded: selectively activates TrkB

From patent publication US20230174510A1, “N-acetylserotonin Derivatives as TrkB Activators and Uses Thereof” (Emory University, priority 2020, published 2023)
